Measurements published in patent US9828592B2, “Chemically modified sophorolipids and uses thereof” (Sophoro Biotechnologies, LLC, priority 2011, dated 2017).

What was measured:
[1] = tested on: Trichoderma reesei (Rut-C30); test: Cellulase induction studies in Trichoderma reesei culture, CMC endo-glucanase activity assay; format: cell-based; settings: for Cellulase activity U/mL at day 3 / Cellulase activity U/mg at day 3: 2% glucose
Trichoderma viride = settings: Mandels et al. 1962; cited from earlier work
[2] = tested on: Trichoderma reesei (Rut-C30); test: Cellulase induction studies in Trichoderma reesei culture, CMC endo-glucanase activity assay; format: cell-based; settings: for CMC (U/mL) at day 5: Example 4, inducer at 2% as carbon source, no glucose
Experimental: Trichoderma reesei (Rut-C30) was selected as the host for cellulase expression in this Example. To prepare for the cellulase induction studies, a citrate minimal media was first prepared. The media composition described by England et al. in U.S. 2010/0009408 was modified to include 14.4 g/L citric acid, 4 g/L KH2PO4, 6.35 g/L (NH4)2SO4, 2 g/L MgSO4-7H2O, 0.53 g/L CaCl2-2H2O, and trace metal elements at 1 mL/L, which included 5 g/L FeSO4-7H2O, 1.6 g/L MnSO4—H2O, and 1.4 g/L ZnSO4-7H2O. The final pH was adjusted to 5.50 using NaOH.
The Trichoderma reesei (ATCC56765) was used in this Example. This fungal strain was developed as a catabolic de-repressed strain from classic mutagenesis of parent strain NG14 and the wild type QM6A. See Seidl et al., BMC Genomics, 9:327 (2008). To propagate Trichoderma, the freeze-dried stock from ATCC was first dissolved in sterile deionized water, and then transferred onto a potato dextrose agar (PDA) plate (Teknova P0047) using a sterile loop. The PDA plate was maintained at room temperature under white fluorescent light. After approximately seven days, green Trichoderma spores were observed. In addition, 60% (w/v) glucose, 15% (w/v) lactose, and 15% (w/v) cellobiose stocks were prepared and used both as controls and as the carbon source for Trichoderma growth.
To initiate cellulase induction studies for each of the sophorolipid mixtures prepared in Examples 1-3 above, 0.5 mL of glucose stock was first placed into 14 mL of citrate minimal media inside a 125 mL baffled flask. […]
To commence the fermentation, an approximately 1 cm×1 cm square agar plug was removed from the Trichoderma spore-containing PDA agar plate using a sterile loop and placed into the cellulase induction culture media. […] At five days of fermentation, the samples were collected and analyzed for carboxymethylcellulose (CMC) endo-glucanase activity. […] It should be understood that one CMC unit denotes the activity that liberates 1 μmol of reducing sugars (expressed as glucose equivalents) in one minute under the specified conditions of 50° C. and pH 4.8.

[3] = Example 8, 0.13 g/L (2.0 mg/15 mL, 0.38 mM)
[4] = Example 8, 1.3 g/L (20 mg/15 mL, 3.90 mM)
[5] = Example 9, 0.13 g/L (2.0 mg/15 mL, 0.38 mM)
[6] = Example 9, 1.3 g/L (20 mg/15 mL, 3.90 mM)
[7] = Example 8, 1.0 g/L (15 mg/15 mL, 2.92 mM)
[8] = Example 9, 1.0 g/L (15 mg/15 mL, 2.92 mM)

SMILES	Cellulase activity U/mL at day 3 [1, 3] [U/mL]	Cellulase activity U/mg at day 3 [1, 3] [U/mg]	Cellulase activity U/mL at day 3 [1, 4] [U/mL]	Cellulase activity U/mg at day 3 [1, 4] [U/mg]	Cellulase activity U/mL at day 3 [1, 5] [U/mL]	Cellulase activity U/mg at day 3 [1, 5] [U/mg]	Cellulase activity U/mL at day 3 [1, 6] [U/mL]	Cellulase activity U/mg at day 3 [1, 6] [U/mg]	increase in cellulase production compared to cellobiose (Trichoderma viride)	cellulase activity compared to the glucose control ([2]; Example 4, day 5, in words)	CMC (U/mL) at day 5 [2] [U/mL]	Cellulase activity U/mL at day 3 [1, 7] [U/mL]	Cellulase activity U/mg at day 3 [1, 7] [U/mg]	Cellulase activity U/mL at day 3 [1, 8] [U/mL]	Cellulase activity U/mg at day 3 [1, 8] [U/mg]	CMC (U/mL) at day 5 ([1]; Example 5, inducer at 2%, no glucose) [U/mL]
OC[C@H]1O[C@@H](O[C@@H]2[C@@H](O)[C@H](O)[C@@H](CO)O[C@@H]2O)[C@H](O)[C@@H](O)[C@@H]1O [sophorose, 2-O-beta-D-glucopyranosyl-alpha-D-glucose]	3.58	26.9	15.0	11.2	3.58	26.9	15.0	11.2	about 2500 times	–	–	–	–	–	–	–
O=C[C@H](O)[C@@H](O)[C@H](O[C@@H]1O[C@H](CO)[C@@H](O)[C@H](O)[C@H]1O)[C@H](O)CO [cellobiose]	–	–	–	–	–	–	–	–	–	marginal cellulase activity	2.05	0.34	0.34	0.34	0.34	–
OC[C@H]1O[C@@H](O[C@H]2[C@H](O)[C@@H](O)C(O)O[C@@H]2CO)[C@H](O)[C@@H](O)[C@H]1O (stereo partly drawn) [lactose]	–	–	–	–	–	–	–	–	–	–	10.1	0.64	0.64	0.64	0.64	8.29
